Measurements published in patent US20170205395A1, “METHODS FOR PROVIDING PERSONALIZED MEDICINE TEST EX VIVO FOR HEMATOLOGICAL NEOPLASMS” (priority 2009, published 2017).
Read-outs that look alike come from different tables or passages of the source.

How the values were obtained:
malignant CLL cells = format: cell-based; conditions: for ex vivo patient response: 30 μM; for induction of apoptosis after 24 hours: CLL whole blood samples, 24 hours incubation, FIG. 8; for ex vivo efficacy in killing malignant cells compared with approved cytotoxic drugs: CLL ex vivo samples, FIG. 6; for ability of SSRIs to induce apoptosis in malignant CLL cells: FIG. 9
[1] = tested on: patients with Chronic Lymphocytic Leukemia; conditions: cited from earlier work
MOLT-4 cells = test: Apoptosis ELISA (one step sandwich ELISA of histone-complexed DNA fragments); format: cell-based, human; conditions: 24 hours, FIG. 20
Description: The one step sandwich ELISA is based in the quantification of histone-complexed DNA fragments (mono- and oligonucleosomes) out of the cytoplasm of cells after the induction of apoptosis or when released from necrotic cells.

[2] = tested on: active caspase-3 in MOLT-4 cells; test: Active caspase-3 determination by Western blot; format: cell-based, human; conditions: 24 hours, FIG. 21
Experimental: Caspase-3 activation was determined using a Western blot of extracts from two acute lymphoblastic cell lines (TOM-1 and MOLT-4) exposed to increased concentrations of sertraline. […] Active caspase-3 is a protease that serves as a marker of apoptosis.

T and NK cells = test: Ex vivo Annexin V flow cytometry apoptosis assay in CLL whole blood, non-malignant cells; format: cell-based, human; conditions: approximately 30 μM, whole blood sample from a CLL patient, FIG. 7
[3] = CLL sample, maximum concentrations, cyclophosphamide tested as its metabolite maphosphamide, FIG. 22

In the case of `O=C1c2c(O)ccc(O)c2C(=O)c2c(NCCNCCO)ccc(NCCNCCO)c21` [mitoxantrone], the “ex vivo patient response” value (malignant CLL cells; patients P1.0105, P2.0019 and P2.035, FIG. 4) is reported as “extreme resistance ex vivo”, the “ex vivo efficacy (resistant / sensitive)” value (malignant CLL cells; [3]) is reported as “resistant” and the “induction of apoptosis after 24 hours” value (malignant CLL cells) is reported as ~50%.
With `COc1ccc(CCN2CCC(Nc3nc4ccccc4n3Cc3ccc(F)cc3)CC2)cc1` [astemizole] the “ex vivo efficacy in killing malignant cells compared with approved cytotoxic drugs” value (malignant CLL cells) was “ex vivo efficacy similar to that of the approved cytotoxic drugs”.
For `COCCCC/C(=N\OCCN)c1ccc(C(F)(F)F)cc1` [fluvoxamine], the “ability of SSRIs to induce apoptosis in malignant CLL cells” value (“ability of SSRIs to induce apoptosis” below) (malignant CLL cells) was “only 3 (paroxetine, fluoxetine, and sertraline) induce apoptosis similarly”.
In the case of `Nc1nc(F)nc2c1ncn2[C@@H]1O[C@H](CO)[C@@H](O)[C@@H]1O` [fludarabine], the “induction of apoptosis after 24 hours” value (malignant CLL cells) is reported as “approximately 40%”.
With `O=P1(N(CCCl)CCCl)NCCCO1` (centres unmarked) [cyclophosphamide] the “ex vivo efficacy (resistant / sensitive)” value (malignant CLL cells) was “resistant”.
For `CNCCC(Oc1ccc(C(F)(F)F)cc1)c1ccccc1` (centres unmarked) [fluoxetine], the “ex vivo efficacy in killing malignant cells compared with approved cytotoxic drugs” value (malignant CLL cells) was “ex vivo efficacy similar to that of the approved cytotoxic drugs” and the “ability of SSRIs to induce apoptosis” value (malignant CLL cells) was “induce apoptosis similarly to clinically approved cytotoxic drugs”.
With `CN(C)C/C=C(/c1ccc(Br)cc1)c1cccnc1` [zimelidine] the “ability of SSRIs to induce apoptosis” value (malignant CLL cells) was “only 3 (paroxetine, fluoxetine, and sertraline) induce apoptosis similarly”.
In the case of `O=C(O)CCCc1ccc(N(CCCl)CCCl)cc1` [chlorambucil], the “induction of apoptosis by the drug alone” value (malignant CLL cells; CLL patient sample, low concentrations, lower curve of FIG. 11) is listed as “did not induce much apoptosis”, the “induction of apoptosis after 24 hours” value (malignant CLL cells) is listed as ~45% and the “% of patients responding” value ([1]; CLL patients with ITRT result DI (Drug Intermediate)) is listed as 66.3 (92) %. For the same compound, the “% of patients responding” value ([1]; CLL patients with ITRT result DR (Drug Resistant)) was 37.6 (24) %, the “% of patients responding” value ([1]; CLL patients with ITRT result DS (Drug Sensitive)) was 85.1 (94) % and the “% of patients responding” value ([1]; all CLL patients (Total)) was 71.5 (210) %.
In the case of `N=C(N)N/N=C/c1c(Cl)cccc1Cl` [guanabenz], the “ex vivo efficacy in killing malignant cells compared with approved cytotoxic drugs” value (malignant CLL cells) is reported as “ex vivo efficacy similar to that of the approved cytotoxic drugs”.
For `COc1ccc2[nH]c([S+]([O-])Cc3ncc(C)c(OC)c3C)nc2c1` (centres unmarked) [omeprazole], the “apoptotic rate (Annexin V positive cells) compared with cytotoxic agents” value (malignant CLL cells; sample of one CLL patient, FIG. 12) was “showed similar apoptotic rates as the cytotoxic agents”.
In the case of `CN[C@H]1CC[C@@H](c2ccc(Cl)c(Cl)c2)c2ccccc21` [sertraline], the “ex vivo efficacy in killing malignant cells compared with approved cytotoxic drugs” value (malignant CLL cells) is reported as “ex vivo efficacy similar to that of the approved cytotoxic drugs”, the “potentiation of chlorambucil-induced apoptosis” value (malignant CLL cells; CLL patient sample, sub-maximal dose of sertraline added to chlorambucil, upper curve of FIG. 11) is reported as “greatly enhanced the level of apoptosis” and the “time to eliminate all malignant cells” value (malignant CLL cells; CLL sample, FIG. 28) is reported as ≤ 24 h. The “incubation with the sample required to induce maximal apoptosis” value (malignant CLL cells; CLL sample, drug washed away, apoptosis measured at 24 or 48 hours, FIG. 28) was 30 min, the “induction of apoptosis after 24 hours” value (malignant CLL cells) was “more than 90%” and the “ability of SSRIs to induce apoptosis” value (malignant CLL cells) was “induce apoptosis similarly to clinically approved cytotoxic drugs”. The “increase of the Apoptosis Index” value (MOLT-4 cells) was “up to 7 fold” and the “induction of active caspase-3” value [2] was “dramatically induced active caspase-3”.
In the case of “rituximab: antibody approved for CLL treatment”, the “ex vivo efficacy (resistant / sensitive)” value (malignant CLL cells; [3]) is reported as “resistant”.
With `Fc1ccc([C@@H]2CCNC[C@H]2COc2ccc3c(c2)OCO3)cc1` [paroxetine] the “ex vivo efficacy in killing malignant cells compared with approved cytotoxic drugs” value (malignant CLL cells) was “ex vivo efficacy similar to that of the approved cytotoxic drugs”, the “ability of SSRIs to induce apoptosis” value (malignant CLL cells) was “induce apoptosis similarly to clinically approved cytotoxic drugs” and the “apoptosis in leukemic cells” value (malignant CLL cells; approximately 30 μM, whole blood sample from a CLL patient, FIG. 7) was ~100%. The “apoptosis in T and NK cells” value (T and NK cells) was 15%.
With `COc1cccc2c1C(=O)c1c(O)c3c(c(O)c1C2=O)C[C@@](O)(C(=O)CO)C[C@@H]3O[C@H]1C[C@H](N)[C@H](O)[C@H](C)O1` [doxorubicin] the “ex vivo patient response” value (malignant CLL cells; the two patients denoted by a star, FIG. 4) was “very effective”.
